From US10577333B2, “Tetrazole derivatives as cytochrome P450 inhibitors” (C26 Bioscience AB, priority 2016, dated 2020)

Assays:
[1] = test system: atRA responsive genes CYP26B1 and RARβ; experiment: QRT-PCR of atRA responsive genes CYP26B1 and RARβ mRNA in human aortic smooth muscle cells; format: cell-based; settings: AOSMCs
Procedure: FIG. 1 illustrates the induction of CYP26B1 and RARβ mRNA at different concentrations of test compound: A) CYP26 and B) RARβ in human smooth muscle cells treated with 0.001-10 μM of the test compound. For all experiments n=3; *P≤0.05, **P<0.01 and ***P<0.001.
FIG. 2 are diagrams of CYP26B1 and RARβ mRNA expression in human smooth muscle cells upon treatment with atRA and/or test compound: A) CYP26B1 and B) RARβ mRNA expression in human smooth muscle cells treated with either 1 μm of atRA, test compound or combination of both for 48 h. The experiment was performed in three independent runs; *P≤0.05, **P<0.01 and ***P<0.001.
Human aortic smooth muscle cells (AOSMCs) were treated with different concentrations of a compound of Formula II (0.001-10 μM; FIGS. 1A and B). AOSMCs were incubated with different concentration (0.001-10 μM) of compound according to Formula II, or DMSO as control, at 37 C for 24 h. Total RNA were isolated by using E.Z.N.A total RNA kit (VWR Stockholm Sweden) and cDNA synthesis was performed through high capacity reverse transcription kits (applied Biosystems, Foster City, Calif., USA) according to manufacturers instructions.
Next, human AOSMCs were treated with either 1 μM of atRA or a compound of Formula II alone, or a combination of both for 48 h. The purification and analysis procedures were as described above. […] The results strongly indicate that the compound of Formula II increases retinoid signalling.

purified CYP26B1 = biological target: T1, purified CYP26B1 (Homo sapiens, UniProt Q9NR63); experiment: Enzymatic assay on purified CYP26B1 with oxidoreductase and NADPH, [3H] atRA, HPLC; format: biochemical; settings: 5 μM, 5 nM CYP26B1, 50 nM [3H] atRA, 1 mM NADPH, 10 sec to 10 min
T1 construct: made in house
T1 sequence (Q9NR63 1-512): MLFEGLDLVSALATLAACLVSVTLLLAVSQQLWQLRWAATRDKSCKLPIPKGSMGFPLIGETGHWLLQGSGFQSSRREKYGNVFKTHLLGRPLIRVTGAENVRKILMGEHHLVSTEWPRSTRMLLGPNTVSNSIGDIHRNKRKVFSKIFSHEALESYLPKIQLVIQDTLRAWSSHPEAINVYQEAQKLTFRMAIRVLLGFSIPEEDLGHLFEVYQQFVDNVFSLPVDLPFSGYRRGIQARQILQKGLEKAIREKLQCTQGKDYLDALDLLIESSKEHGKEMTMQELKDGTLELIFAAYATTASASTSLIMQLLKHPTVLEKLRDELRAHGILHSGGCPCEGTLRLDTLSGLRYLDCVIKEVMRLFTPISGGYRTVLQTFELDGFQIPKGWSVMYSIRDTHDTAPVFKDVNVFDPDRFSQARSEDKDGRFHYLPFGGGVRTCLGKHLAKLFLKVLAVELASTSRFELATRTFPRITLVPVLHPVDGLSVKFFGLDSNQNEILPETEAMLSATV
Procedure: FIG. 4 is a graph showing results from an enzymatic assay carried out on purified CYP26B1, incubated with 5 or 25 μM of the test compound in the presence of oxidoreductase and NADPH, at different time points. The control experiment was performed without initiation with NADPH. For all experiments n=3.
To investigate the efficiency of the compound of Formula II in blocking CYP26B1, CYP26B1 was purified and subsequently incubated with 5 and 25 μM of compound of Formula II for different time points (10 s to 10 min). This experiment thus excludes any other possible metabolic route that potentially could have been present in the cellular experiments. Purified CYP26B1 was stored in buffer containing 50 mM K2HPO4, 0.5 mM EDTA and 20% of glycerol, pH 7.4 at −80° C. The assay was performed as follows: 5 nM of CYP26B1 and 10 nM oxidoreductase was preincubated. 5 or 25 μM of the compound of Formula II and 50 nM [^3H] atRA were added followed by addition of 1 mM NADPH in total volume of 100 μl of Kpi buffer and incubated for 10 sec to 10 min. The reaction was stopped by adding 100 μl absolute ethanol. The sample was subsequently extracted and analysed by HPLC. For control, experiments were performed as above but without initiation of the reaction by NADPH.

CYP26B1 [2] = biological target: T2, CYP26B1 (Homo sapiens, UniProt Q9NR63); experiment: [3H] atRA catabolism in CYP26B1 transfected COS-1 cells, HPLC analysis; format: cell-based; set-up: expressed in transfected cells; host or cells: COS-1; settings: 1 or 10 μM for 1 h, then [3H] atRA for 2 h
T2 sequence (Q9NR63 1-512): T1 sequence (Q9NR63 1-512)
Procedure: (§1) FIG. 3 illustrates quantification of atRA levels by HPLC in human smooth muscle cells and transfected COS-1 cells: A) Human smooth muscle cells were treated with 1 or 10 μM of the new CYP26 inhibitor for 1 h followed by a 4 h [^3H] atRA incubation. B) COS-1 transfected by 1 μg/μL of CYP26B1 and incubated with 1 or 10 μM of test compound followed by a 2 h [^3H] atRA incubation. For all experiments n=3; *P<0.05, **P<0.01 and ***P<0.001.
To investigate the specificity of our candidate to inhibit CYP26B1-mediated catabolism of atRA, COS-1 cells were transfected with CYP26B1 or an empty vector (in which case no CYP26B1 can be produced). COS-1 was maintained in Dulbecco's Modified Eagle's Medium (DMEM; Life Technologies, Carsbad, Calif., USA) and transfection of COS-1 was performed in 12 well plates using 1 μg/μl of CYP26B1 and 2 μl of lipofectamin 2000 in 250 μl of Opti-MEM (Opti-MEM: Modified Eagle's Minimum Essential Media; Life Technologies, Carlsbad, Calif., USA). The mixture was incubated at room temperature for 20 minutes and added to the plate for 4 h followed by addition of growth medium for 24 h. The next day, the medium was replaced by fresh DMEM and treated by 1 or 10 μM of the compound according to Formula II for 1 h followed by exposure to 1 μCl/ml of [^3H] atRA for 2 h, and subsequent HPLC analysis.

CYP26B1 [3] = biological target: T2, CYP26B1; experiment: [3H] atRA catabolism in human smooth muscle cells, HPLC analysis; format: cell-based; set-up: endogenous in cells; host or cells: human aortic smooth muscle cells (AOSMC); settings: AOSMCs, 1 or 10 μM for 1 h, then [3H] atRA for 4 h
Procedure: as §1
AOSMCs were seeded out in density of 2×10^5 in 6 well plates incubated with two different concentrations (1 and 10 μM) of compound according to Formula II for 1 h followed by exposure to 1 μCl/ml of [^3H] atRA for 4 h. Cells were thereafter washed using BSA 1 mg/ml of PBS followed by HPLC analysis.

[4] = 1 μM in combination with atRA, 48 h
[5] = 0.001-10 μM, 24 h, normalized to Cyclophilin A, vs DMSO control

Cn1nnnc1SCCC(=O)NCc1ccc(C(=O)O)cc1 [compound of Formula II] was tested, and the “effect of atRA on induction of CYP26B1 mRNA” value [1, 4] was “significantly increased the effects of atRA on the induction”, the “effect of atRA on induction of RARβ mRNA” value [1, 4] was “significantly increased the effects of atRA on the induction” and the “expression of CYP26B1 mRNA” value [1, 5] was “significantly induced in a dose-dependent manner”. The “expression of RARβ mRNA” value [1, 5] was “significantly induced in a dose-dependent manner”, the “RA degradation by purified CYP26B1” value (purified CYP26B1) was “efficiently inhibited RA degradation” and the “levels of atRA” value (CYP26B1 [2]) was “significantly increased the levels of atRA”. For the same compound, the “degradation of atRA in the cells” value (CYP26B1 [3]) was “greatly reduces the degradation of atRA”.
